Calls of active or inactive are those of the source.
Assays:
[1] = molecular target: T1, Delta-type opioid receptor (Homo sapiens, UniProt P41143); assay: HTS Image-Based Screen for Antagonists of the DOR Receptor. [Related pubchem assays (depositor defined):AID1777, AID1785, AID1786, AID2133]; type: functional
[2] = molecular target: Mu-type opioid receptor (Homo sapiens, UniProt P35372); assay: HTS Image-Based Screen for Agonists of the MOR Receptor. [Related pubchem assays (depositor defined):AID1777, AID1785, AID1786, AID2133]; type: functional;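 note: imaging of beta-arrestin GFP recruitment into spots after receptor activation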
[3] = molecular target: Cytochrome P450 2C19 (Homo sapiens, UniProt P33261); assay: Cytochrome panel assay with activity outcomes. Panel member name: p450-cyp2c19 Compounds with AC50 equal or less than 10 uM are considered active; type: functional; details: read-out: AC50
[4] = molecular target: ATP-dependent molecular chaperone HSP82 (Candida albicans (strain WO-1) (Yeast), UniProt C4YTQ8); assay: steroid-induced GRE reporter decrease in yeast – S. cerevisiae, luminescence, Hsp90 inhibitor project, dose response (AID 2400); type: functional, cell-based;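 note: beta-galactosidase luminescence from glucocorticoid response element reporter as proxy for Hsp90 function; inhibitor potency where signal loss means Hsp90 inhibition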
[5] = test system: Vero; assay: cells; type: functional; details: Chlorocebus sabaeus
[6] = test system: Vero; assay: cells; type: functional, cell-based; details: Chlorocebus sabaeus
[7] = NIH-3T3 fibroblast cytotoxicity, dose response, cytotoxicity control, cell-based, fluorescence, Alamar Blue, secondary assay (AID 2327); type: functional;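 note: NIH-3T3 mouse fibroblasts cultured with fluconazole at 8 µg/mL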
[8] = molecular target: T2, Ubiquitin-conjugating enzyme E2 N (Homo sapiens, UniProt P61088); type: functional
T2 sequence (P61088 whole entry): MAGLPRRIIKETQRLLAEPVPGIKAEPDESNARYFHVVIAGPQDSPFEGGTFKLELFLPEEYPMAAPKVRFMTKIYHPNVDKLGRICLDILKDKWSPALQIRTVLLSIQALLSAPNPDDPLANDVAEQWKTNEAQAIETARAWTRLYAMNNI

[9] = molecular target: T3, Beta-galactosidase (Escherichia coli, UniProt Q8VNN2); type: functional
[10] = molecular target: T4, Serine/threonine-protein phosphatase (Candida dubliniensis (strain CD36 / CBS 7987 / NCPF 3949 / NRRLY-17841) (Yeast), UniProt B9W6M3); assay: blockers of CaCl2-induced CDRE-lacZ signaling – S. cerevisiae, luminescence, secondary, dose response (AID 2388); type: functional, cell-based;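 note: yeast reporter cells carrying a calcineurin-responsive lacZ construct stimulated with calcium chloride; luminescent beta-galactosidase reporter signal in whole cells rather than isolated phosphatase activity; potency for inhibition where a drop in reporter signal means calcineurin blockade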
T4 sequence (B9W6M3 whole entry): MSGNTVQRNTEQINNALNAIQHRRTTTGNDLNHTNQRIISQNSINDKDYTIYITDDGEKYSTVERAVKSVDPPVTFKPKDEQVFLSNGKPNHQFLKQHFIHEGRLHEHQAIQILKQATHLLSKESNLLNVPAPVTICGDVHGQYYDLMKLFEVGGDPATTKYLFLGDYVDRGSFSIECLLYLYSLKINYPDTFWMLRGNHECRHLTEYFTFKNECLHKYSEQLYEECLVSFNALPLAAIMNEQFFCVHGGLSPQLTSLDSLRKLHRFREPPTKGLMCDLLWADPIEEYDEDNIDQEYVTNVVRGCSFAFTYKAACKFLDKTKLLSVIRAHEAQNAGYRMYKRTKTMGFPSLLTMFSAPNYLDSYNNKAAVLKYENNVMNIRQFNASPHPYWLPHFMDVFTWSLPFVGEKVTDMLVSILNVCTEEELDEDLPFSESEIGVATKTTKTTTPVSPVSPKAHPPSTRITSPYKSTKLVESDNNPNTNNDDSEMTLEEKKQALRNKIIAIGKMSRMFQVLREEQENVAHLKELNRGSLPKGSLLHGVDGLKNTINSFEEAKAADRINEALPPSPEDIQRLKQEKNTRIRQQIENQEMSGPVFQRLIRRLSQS

[11] = molecular target: T2, Ubiquitin-conjugating enzyme E2 N; type: functional; remark: listed apart in the source
[12] = molecular target: T5, Bcl-2-related protein A1 (Mus musculus, UniProt Q07440); type: functional;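 note: confirmatory dose–response counterscreen on Bfl-1, used to check hits from a UBC13 polyubiquitin inhibitor campaign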
T5 sequence (Q07440 whole entry): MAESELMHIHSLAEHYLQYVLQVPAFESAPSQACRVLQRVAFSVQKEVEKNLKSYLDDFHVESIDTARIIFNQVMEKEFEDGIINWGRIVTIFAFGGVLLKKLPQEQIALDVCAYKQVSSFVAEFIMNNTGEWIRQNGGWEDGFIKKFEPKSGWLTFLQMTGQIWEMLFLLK

[13] = fluconazole-exposed Candida albicans growth modulators – fluorescence, retest, confirmation (AID 2467); type: functional, cell-based
[14] = molecular target: T1, Delta-type opioid receptor; assay: HTS Image-Based Screen for Agonists of the DOR Receptor. [Related pubchem assays (depositor defined):AID1777, AID1786, AID2133]; type: functional
[15] = test system: Streptococcus sp. 'group A'; assay: Streptococcus pyogenes SK(-)GAS viability under kanamycin – luminescence, BacTiterGlo, confirmation, counter-screen for streptokinase expression inhibitor project, dose response (AID 1900); type: functional, organism-based
[16] = reduction of Shn3 3'UTR-driven luciferase in osteoblasts – cell-based, Clone20 osteoblasts, firefly luciferase, cherry-picked, dose response (AID 624132); type: functional;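 note: firefly luciferase luminescence from reporter carrying the Shn3 3'UTR in osteoblasts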
[17] = test system: Streptococcus; assay: GAS UMAA2166 growth inhibition – luminescence, BacTiterGlo, counter-screen for streptokinase expression inhibitor project, dose response (AID 1915); type: functional, organism-based;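 note: potency for reduction of bacterial viability or growth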
[18] = loss of viability in HepG2 cells – cell-based, CellTiter-Glo, cherry-picked, cytotoxicity control for Shn3 inhibitor project, dose response (AID 624134); type: functional
[19] = molecular target: T6, Type-1 angiotensin II receptor (Homo sapiens, UniProt P30556); assay: antagonism of angiotensin II type 1 receptor – cell-based, uHTS hits, selectivity assay for APJ receptor antagonist project, dose response (AID 463214); type: functional;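 note: antagonist potency against angiotensin II stimulated AT1 response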
T6 sequence (P30556 whole entry): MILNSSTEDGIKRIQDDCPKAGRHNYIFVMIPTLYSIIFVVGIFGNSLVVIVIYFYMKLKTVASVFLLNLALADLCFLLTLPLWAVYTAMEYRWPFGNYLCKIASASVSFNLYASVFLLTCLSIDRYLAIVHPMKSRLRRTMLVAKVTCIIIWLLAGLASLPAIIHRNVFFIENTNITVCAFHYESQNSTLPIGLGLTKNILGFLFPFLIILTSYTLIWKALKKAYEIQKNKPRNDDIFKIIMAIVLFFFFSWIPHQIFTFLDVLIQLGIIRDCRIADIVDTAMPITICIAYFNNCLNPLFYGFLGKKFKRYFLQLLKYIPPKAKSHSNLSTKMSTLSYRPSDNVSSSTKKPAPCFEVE

[20] = molecular target: T3, Beta-galactosidase; assay: PubChem AID 485352; type: functional
[21] = molecular target: T7, Kappa-type opioid receptor (Homo sapiens, UniProt P41145); type: functional
[22] = molecular target: T7, Kappa-type opioid receptor; type: functional; remark: listed apart in the source
[23] = non-specific 3'UTR reporter inhibition in Clone20-Shn3RL – cell-based, Renilla luciferase, cherry-picked, counter-screen for Shn3 inhibitor project, dose response (AID 624133); type: functional
[24] = molecular target: Tyrosine-protein phosphatase non-receptor type 7 (Homo sapiens, UniProt P35236); type: functional
[25] = molecular target: Glyceraldehyde-3-phosphate dehydrogenase (Homo sapiens, UniProt P04406)
[26] = molecular target: T8, Dual specificity protein phosphatase 6 (Rattus norvegicus, UniProt Q64346)
[27] = molecular target: T8, Dual specificity protein phosphatase 6; type: functional
[28] = Luminescence Cell-Based Secondary HTS screen to identify cytotoxic compounds of NIH3T3 cells. [Related pubchem assays: 1885, 1968 ]; type: functional
[29] = Luminescence Cell-Based/Microorganism Confirmation at Dose of Inhibitors of Trypanosoma cruzi Infection. [Related pubchem assays: 1885, 1968 ]; type: functional
[30] = cells
[31] = NIH3T3 cell viability loss – ATP luminescence, mouse fibroblasts, counter-screen, dose response (AID 2010); type: functional, cell-based;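 note: cells exposed to compound for about 90 hours before reading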
[32] = T. cruzi infection blockers in NIH3T3 cells – beta-gal luminescence, NIH3T3 host cells, confirmation (AID 2630); type: functional, cell-based; details: Mus musculus
[33] = Trypanosoma cruzi growth suppression in host cells – NIH3T3 host cells, beta-gal luminescence, confirmation (AID 2044); type: functional, cell-based;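 note: intracellular parasites grown in NIH/3T3 mouse fibroblasts as host cells; luminescent beta-galactosidase reporter signal from transgenic T. cruzi replicating inside host cells; inhibitors lower the luminescence signal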
[34] = test system: BJ; assay: growth inhibition of engineered Ras-driven BJ cells – cell-based, alamar blue fluorescence, cherrypicked samples, dose response (AID 2631); type: functional; details: Homo sapiens;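 note: confirmatory dose-response assay in RAS-dependent BJ fibroblasts engineered with TERT, LT and ST, with cytotoxicity read by fluorescence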
[35] = Fluorescence-based cell-based high throughput dose response assay for inhibitors of the interaction of nucleotide-binding oligomerization domain containing 2 (NOD2) and the receptor-interacting serine-threonine kinase 2 (RIPK2).; type: functional; details: Homo sapiens
[36] = alpha-synuclein stem-loop translation blockers – luminescence, H4 neuroglioblastoma cells, dose confirmation, confirmation (AID 2454); type: functional, cell-based;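 note: H4 neuroglioblastoma cells carrying an alpha-synuclein 5'UTR luciferase reporter; potency for inhibition of the luciferase signal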
[37] = luciferase reporter signal reduction – luminescence, H4-C neuroglioblastoma cells, dose response (AID 2458); type: functional, cell-based;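 note: H4 neuroglioblastoma cells stably carrying a luciferase reporter gene fusion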
[38] = molecular target: Paired box protein Pax-8 (Homo sapiens, UniProt Q06710); assay: PAX8 transcriptional activity inhibition in RMG-I – RMG-I cells, luciferase, cherry-pick, dose response (AID 687027); type: functional, cell-based;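 note: luciferase reporter driven by Pax8 target thyroperoxidase promoter measured by SteadyGlo luminescence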
[39] = Luminescence Cell-Based Dose Response HTS to Identify Inhibitors of 5'UTR Stem-Loop Driven Prion Protein mRNA Translation in H4 Neuroglioblastoma Cells. [Related pubchem assays: 1827 (Project Summary), 1813 (Primary HTS)]; type: functional
[40] = test system: Jurkat; assay: blockers of NF-kB activation in T cells – Jurkat, luciferase reporter, luminescence, B- and T-cell, dose response (AID 489004); type: functional, cell-based; details: Homo sapiens;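 note: NF-kB luciferase reporter Jurkat cells stimulated with PMA plus ionomycin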
[41] = cells; type: functional, cell-based
[42] = molecular target: T9, Heat shock factor protein 1 (Mus musculus, UniProt P38532); assay: decrease of HSF1-responsive luciferase luminescence – cell-based, NIH3T3, dose retest, confirmation (AID 2382); type: functional;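 note: NIH3T3 fibroblasts with HSF1-driven luciferase reporter stressed by proteasome inhibitor MG132; luminescence from HSF1-driven luciferase expression after 8 hours of MG132 stress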
T9 sequence (P38532 whole entry): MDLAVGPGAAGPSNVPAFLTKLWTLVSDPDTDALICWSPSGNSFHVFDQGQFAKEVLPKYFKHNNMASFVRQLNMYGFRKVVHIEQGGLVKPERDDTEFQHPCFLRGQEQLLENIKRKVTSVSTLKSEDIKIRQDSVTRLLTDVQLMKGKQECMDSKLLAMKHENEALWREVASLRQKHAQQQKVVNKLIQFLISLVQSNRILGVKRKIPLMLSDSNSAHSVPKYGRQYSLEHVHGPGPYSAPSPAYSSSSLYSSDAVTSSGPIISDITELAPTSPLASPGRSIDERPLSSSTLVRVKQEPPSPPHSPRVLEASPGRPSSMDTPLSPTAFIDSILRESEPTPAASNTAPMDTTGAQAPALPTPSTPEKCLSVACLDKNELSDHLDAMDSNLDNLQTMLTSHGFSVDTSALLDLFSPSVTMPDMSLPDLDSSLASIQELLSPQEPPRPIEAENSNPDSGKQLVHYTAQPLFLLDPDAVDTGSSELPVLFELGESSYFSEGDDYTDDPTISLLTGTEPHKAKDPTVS

[43] = alpha-synuclein stem-loop luciferase translation blockers – H4 neuroglioma cells, luminescence, confirmation (AID 1988); type: functional, cell-based
[44] = luciferase reporter signal suppression in cells – H4 neuroglioma cells, luminescence, dose response (AID 1990); type: functional, cell-based
[45] = HEK-293T viability loss, compound-treated – cell-based, uHTS hits, cytotoxicity control for B/T-cell NF-kB inhibitor project, dose response (AID 489019); type: functional;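 note: IC50 reflects cytotoxicity as loss of cell viability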

T1 sequence (P41143 whole entry): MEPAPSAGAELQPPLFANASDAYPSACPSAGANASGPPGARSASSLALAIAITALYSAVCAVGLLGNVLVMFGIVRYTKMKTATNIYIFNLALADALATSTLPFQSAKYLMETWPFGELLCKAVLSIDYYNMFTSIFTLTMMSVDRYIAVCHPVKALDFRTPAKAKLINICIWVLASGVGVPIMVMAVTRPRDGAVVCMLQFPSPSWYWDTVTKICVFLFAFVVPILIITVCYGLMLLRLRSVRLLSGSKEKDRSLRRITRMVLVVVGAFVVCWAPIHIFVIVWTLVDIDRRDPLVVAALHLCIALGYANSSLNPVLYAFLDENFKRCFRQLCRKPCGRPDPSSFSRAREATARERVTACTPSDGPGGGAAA
T3 sequence (Q8VNN2 whole entry): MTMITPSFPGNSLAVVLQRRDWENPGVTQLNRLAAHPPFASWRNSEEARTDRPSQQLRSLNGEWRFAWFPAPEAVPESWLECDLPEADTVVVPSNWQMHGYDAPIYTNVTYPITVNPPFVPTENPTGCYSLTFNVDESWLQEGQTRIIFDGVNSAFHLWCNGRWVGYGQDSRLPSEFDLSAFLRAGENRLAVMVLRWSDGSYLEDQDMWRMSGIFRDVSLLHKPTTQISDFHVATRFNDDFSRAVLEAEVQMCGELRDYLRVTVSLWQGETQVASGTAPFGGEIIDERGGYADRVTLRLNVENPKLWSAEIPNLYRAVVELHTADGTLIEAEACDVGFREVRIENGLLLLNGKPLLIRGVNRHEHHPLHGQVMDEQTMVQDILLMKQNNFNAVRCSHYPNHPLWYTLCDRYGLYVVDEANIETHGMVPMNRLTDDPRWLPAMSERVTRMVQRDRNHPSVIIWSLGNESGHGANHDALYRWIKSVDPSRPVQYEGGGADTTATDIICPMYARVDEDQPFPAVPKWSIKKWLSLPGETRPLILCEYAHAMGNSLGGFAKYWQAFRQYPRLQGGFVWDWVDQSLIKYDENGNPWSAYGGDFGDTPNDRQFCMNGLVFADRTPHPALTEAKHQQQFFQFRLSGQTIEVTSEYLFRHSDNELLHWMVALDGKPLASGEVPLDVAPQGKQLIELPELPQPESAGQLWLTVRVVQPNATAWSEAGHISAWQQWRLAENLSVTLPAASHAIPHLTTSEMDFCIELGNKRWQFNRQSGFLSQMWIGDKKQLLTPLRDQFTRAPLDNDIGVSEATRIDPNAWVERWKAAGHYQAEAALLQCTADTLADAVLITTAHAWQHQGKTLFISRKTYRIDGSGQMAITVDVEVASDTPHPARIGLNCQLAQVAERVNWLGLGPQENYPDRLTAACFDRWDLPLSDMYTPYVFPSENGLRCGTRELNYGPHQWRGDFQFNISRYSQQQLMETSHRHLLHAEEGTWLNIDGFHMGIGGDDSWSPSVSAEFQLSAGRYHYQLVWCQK
T7 sequence (P41145 whole entry): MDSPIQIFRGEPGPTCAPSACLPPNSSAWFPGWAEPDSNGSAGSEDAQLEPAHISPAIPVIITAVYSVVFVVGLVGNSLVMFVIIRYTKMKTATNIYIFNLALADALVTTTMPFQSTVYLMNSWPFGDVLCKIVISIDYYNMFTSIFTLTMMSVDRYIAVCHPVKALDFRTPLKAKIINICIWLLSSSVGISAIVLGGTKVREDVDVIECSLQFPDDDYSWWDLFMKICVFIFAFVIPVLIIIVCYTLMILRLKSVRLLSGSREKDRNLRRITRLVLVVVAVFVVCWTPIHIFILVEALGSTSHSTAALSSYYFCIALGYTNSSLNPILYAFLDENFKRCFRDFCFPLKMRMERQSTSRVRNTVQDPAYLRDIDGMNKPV
T8 sequence (Q64346 whole entry): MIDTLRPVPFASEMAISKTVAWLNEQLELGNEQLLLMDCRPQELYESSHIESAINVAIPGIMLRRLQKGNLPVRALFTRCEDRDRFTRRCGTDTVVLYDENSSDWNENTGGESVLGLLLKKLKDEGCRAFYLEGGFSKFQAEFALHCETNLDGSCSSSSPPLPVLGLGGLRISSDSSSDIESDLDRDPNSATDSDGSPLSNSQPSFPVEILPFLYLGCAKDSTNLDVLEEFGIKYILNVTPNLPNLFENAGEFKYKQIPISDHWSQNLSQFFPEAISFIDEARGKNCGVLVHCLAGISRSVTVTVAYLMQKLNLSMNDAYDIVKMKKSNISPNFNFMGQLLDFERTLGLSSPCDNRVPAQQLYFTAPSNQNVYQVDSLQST
Sequence of Tyrosine-protein phosphatase non-receptor type 7 (P35236 whole entry): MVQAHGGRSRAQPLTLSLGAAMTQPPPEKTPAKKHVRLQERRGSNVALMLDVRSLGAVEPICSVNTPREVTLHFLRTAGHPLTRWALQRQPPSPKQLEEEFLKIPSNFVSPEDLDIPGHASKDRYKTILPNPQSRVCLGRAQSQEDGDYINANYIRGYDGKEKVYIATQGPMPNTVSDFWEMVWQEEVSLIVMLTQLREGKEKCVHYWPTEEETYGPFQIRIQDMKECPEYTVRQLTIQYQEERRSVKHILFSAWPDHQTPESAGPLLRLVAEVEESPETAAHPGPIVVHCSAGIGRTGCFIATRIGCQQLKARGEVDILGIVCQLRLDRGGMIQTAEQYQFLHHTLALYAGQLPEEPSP
Sequence of Glyceraldehyde-3-phosphate dehydrogenase (P04406 whole entry): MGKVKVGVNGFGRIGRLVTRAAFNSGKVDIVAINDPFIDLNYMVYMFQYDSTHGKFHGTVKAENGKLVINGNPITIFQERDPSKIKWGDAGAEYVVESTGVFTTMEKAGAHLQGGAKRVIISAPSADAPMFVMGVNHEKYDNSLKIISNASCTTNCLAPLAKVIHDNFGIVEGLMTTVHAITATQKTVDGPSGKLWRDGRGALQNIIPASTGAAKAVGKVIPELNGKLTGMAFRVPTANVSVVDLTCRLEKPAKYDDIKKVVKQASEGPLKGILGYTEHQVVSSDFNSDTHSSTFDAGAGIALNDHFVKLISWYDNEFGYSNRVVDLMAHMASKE
Sequence of ATP-dependent molecular chaperone HSP82 (C4YTQ8 whole entry): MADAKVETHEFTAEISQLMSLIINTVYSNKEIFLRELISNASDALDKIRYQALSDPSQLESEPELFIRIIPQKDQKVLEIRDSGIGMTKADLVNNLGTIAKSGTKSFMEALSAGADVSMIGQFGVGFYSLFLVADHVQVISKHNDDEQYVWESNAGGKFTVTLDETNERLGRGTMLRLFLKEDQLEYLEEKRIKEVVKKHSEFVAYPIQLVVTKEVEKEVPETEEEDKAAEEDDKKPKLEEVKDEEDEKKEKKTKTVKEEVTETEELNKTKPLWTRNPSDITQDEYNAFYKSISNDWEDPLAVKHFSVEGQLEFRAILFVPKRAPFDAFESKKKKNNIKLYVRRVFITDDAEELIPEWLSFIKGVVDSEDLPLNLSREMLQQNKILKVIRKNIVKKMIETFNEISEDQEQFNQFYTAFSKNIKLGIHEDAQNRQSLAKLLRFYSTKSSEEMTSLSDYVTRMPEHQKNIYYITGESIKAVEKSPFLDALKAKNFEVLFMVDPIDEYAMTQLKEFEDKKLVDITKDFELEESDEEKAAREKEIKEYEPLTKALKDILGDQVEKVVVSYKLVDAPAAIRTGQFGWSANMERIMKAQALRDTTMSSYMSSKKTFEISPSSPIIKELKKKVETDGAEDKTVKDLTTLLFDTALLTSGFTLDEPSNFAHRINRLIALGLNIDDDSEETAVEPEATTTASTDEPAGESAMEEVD
Sequence of Paired box protein Pax-8 (Q06710 whole entry): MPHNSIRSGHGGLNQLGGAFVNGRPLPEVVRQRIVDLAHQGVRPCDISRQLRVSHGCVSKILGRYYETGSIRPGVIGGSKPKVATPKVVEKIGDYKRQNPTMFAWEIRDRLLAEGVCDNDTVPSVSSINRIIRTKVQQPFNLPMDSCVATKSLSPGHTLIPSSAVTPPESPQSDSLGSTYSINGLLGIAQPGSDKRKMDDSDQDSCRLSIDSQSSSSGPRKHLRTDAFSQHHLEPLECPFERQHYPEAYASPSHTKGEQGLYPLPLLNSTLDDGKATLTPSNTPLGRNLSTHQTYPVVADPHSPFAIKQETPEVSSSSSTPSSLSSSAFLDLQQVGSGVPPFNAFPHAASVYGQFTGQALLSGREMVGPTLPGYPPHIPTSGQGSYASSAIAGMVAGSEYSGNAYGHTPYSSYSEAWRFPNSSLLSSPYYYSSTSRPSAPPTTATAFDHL
Sequence of Mu-type opioid receptor (P35372 whole entry): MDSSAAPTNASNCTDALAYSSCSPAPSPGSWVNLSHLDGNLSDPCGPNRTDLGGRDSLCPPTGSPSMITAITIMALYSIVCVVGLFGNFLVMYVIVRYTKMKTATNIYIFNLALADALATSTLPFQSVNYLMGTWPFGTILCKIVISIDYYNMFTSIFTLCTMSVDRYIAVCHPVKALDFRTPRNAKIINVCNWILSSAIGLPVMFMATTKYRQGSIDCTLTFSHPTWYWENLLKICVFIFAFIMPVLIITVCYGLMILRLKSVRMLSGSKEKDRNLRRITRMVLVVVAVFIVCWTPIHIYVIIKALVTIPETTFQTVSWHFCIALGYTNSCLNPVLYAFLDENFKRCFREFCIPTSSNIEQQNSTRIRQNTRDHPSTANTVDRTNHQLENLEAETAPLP
Sequence of Cytochrome P450 2C19 (P33261 whole entry): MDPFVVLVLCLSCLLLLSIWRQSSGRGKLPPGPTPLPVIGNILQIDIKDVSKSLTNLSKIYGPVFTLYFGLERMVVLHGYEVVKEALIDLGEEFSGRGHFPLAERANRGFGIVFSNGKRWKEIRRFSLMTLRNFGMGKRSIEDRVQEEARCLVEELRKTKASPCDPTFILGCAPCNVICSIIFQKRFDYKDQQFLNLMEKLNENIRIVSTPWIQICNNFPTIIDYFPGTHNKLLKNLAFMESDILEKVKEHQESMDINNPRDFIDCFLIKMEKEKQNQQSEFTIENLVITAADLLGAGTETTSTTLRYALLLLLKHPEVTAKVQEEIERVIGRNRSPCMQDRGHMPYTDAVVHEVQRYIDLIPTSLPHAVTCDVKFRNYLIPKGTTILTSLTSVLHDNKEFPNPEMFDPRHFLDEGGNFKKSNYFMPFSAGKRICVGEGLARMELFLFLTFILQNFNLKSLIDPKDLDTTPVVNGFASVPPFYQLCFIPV

SMILES: CCCOc1ccc(C(=O)NNC(=S)NC(=O)CC)cc1
- IC50 [1]: > 32 µM (inactive)
- EC50 [2]: > 32 µM (inactive)
- AC50 [3]: 20 µM (inconclusive)
- EC50 [4]: 20.1 µM (active)
- CC50 [5]: 21.3 µM (active)
- IC50 [6]: > 25 µM (active)
- EC50 [7]: 35.1 µM (active)
- IC50 [8]: 7.86 µM (active)
- EC50 [9]: > 31.5 µM (inactive)
- EC50 [10]: > 180 µM (inactive)
- IC50 [11]: 9.02 µM (active)
- IC50 [12]: > 20 µM (inactive)
- EC50 [13]: 0.384 µM (active)
- EC50 [14]: > 32 µM (inactive)
- EC50 [15]: 0.612 µM (active)
- AC50 [16]: 24.4 µM (active)
- EC50 [17]: 2.48 µM (active)
- AC50 [18]: > 70 µM (inactive)
- IC50 [19]: 7.14 µM (active)
- EC50 [20]: > 40 µM (inactive)
- IC50 [21]: > 32 µM
- IC50 [22]: 7.95 µM (active)
- AC50 [23]: 4.18 µM (active)

SMILES: Cc1ccccc1Cn1c(=O)n(-c2ccccc2)c(=O)n([C@@H](C)C(N)=O)c1=O
- IC50 [24]: > 100 µM (not active)
- IC50 [25]: > 100 µM (not active)
- IC50 [26]: > 100 µM (inactive)
- IC50 [27]: > 100 µM (inactive)

SMILES: O=S(=O)(NCC(c1cccnc1)N1CCN(c2ccc(F)cc2)CC1)c1ccccc1 (stereo not given)
- EC50 [28]: > 195 µM (not active)
- EC50 [29]: 0.057 µM (active)
- EC50 [30]: 0.066 µM (active)
- EC50 [31]: > 60 µM (not active)
- EC50 [32]: 0.057 µM (active)
- EC50 [33]: < 0.1 µM (active)

SMILES: COc1ccc(C[C@H]2NC[C@H](O)[C@H]2OC(C)=O)cc1 [ANISOMYCIN]
- EC50 [34]: 0.0308 µM (active)
- IC50 [35]: 49.8 µM (inactive)
- EC50 [36]: 0.104 µM (active)
- EC50 [37]: 0.091 µM (active)
- AC50 [38]: < 0.26 µM (active)
- EC50 [39]: > 120 µM (not active)
- IC50 [40]: < 0.16 µM (active)
- EC50 [41]: 0.121 µM (active)
- EC50 [42]: 0.243 µM (active)
- EC50 [7]: < 0.12 µM (active)
- EC50 [43]: < 0.1 µM (active)
- EC50 [13]: 1.03 µM (active)
- EC50 [44]: < 0.1 µM (active)
- AC50 [16]: 0.882 µM (active)
- AC50 [18]: > 70 µM (inactive)
- IC50 [45]: > 80 µM (inactive)
- AC50 [23]: 3.44 µM (active)

— ChEMBL document CHEMBL1201862, “PubChem BioAssay data set” (2004)
